Assay results from patent publication US5668182A, “Method of calming or sedating an animal with a hydroxy benzaldehyde compound” (priority 1996, dated 1997).
Like-named read-outs stand apart in the source and are kept apart here.

Test system: mice
Assay: Inverted screen test in mice (Example 4)
Format: in vivo
Settings: for ED50: Mus musculus, ip, read-out: ED-50 (95% confidence limits); for potency relative to vanillin: early time points (up to 5 minutes), ethanol vehicle itself gives approximately 10% impairment
Protocol: An inverted screen test was performed on mice to investigate the effect of vanillin and vanillin analogs on muscular function. After i.p. injection of vanillin or vehicle, each mouse was placed on a wire screen (12.8 cm×12.8 cm with a 6 mm mesh size) and the screen was inverted. A positive effect was found if the drug caused the mouse to fall from the screen within 60 seconds. A negative effect was found if the mouse had the ability to climb from the underside of the screen to the top side of the screen within the 60 second time period. Hanging from the underside of the screen without falling but without climbing to the topside at 60 seconds is recorded as a one-half positive effect per the convention of Coughenour, L. L.; Mclean, J. R.; Parker, R. B., "A New Device for the Rapid Measurement of Impaired Motor Function in Mice," Pharmacol. Biochem. Behav., 6: 351-353; 1977. The test was performed at 2, 5, 10, and 30 minutes following administration of vanillin or vehicle. At each of those times, an ED-50 (and 95% confidence limits) was determined for vanillin. Six mice were used in each experimental group.
Several analogs of vanillin were also examined in this test. The chemical structures and chemical names for these compounds are described hereinabove.
The testing of these compounds was limited both by supply of compound and by solubility. Testing was performed at 2, 5, 10, 20 minutes after administration of drug or vehicle. The vehicles used to solubilize the analogs were as follows: 10% ethanol for TBJ1, TBJ2, and TBJ3; 3% ammonium hydroxide solution in saline for FSA (pH=9); 6.7% ammonium hydroxide in saline for TB17 (pH=9.3); and 20% ethanol, 1% ammonium hydroxide solution in saline for TB34 (pH=10.0). ED-50s of compounds (and 95% confidence limits) were calculated in cases where the data permitted the calculation.

## COC(=O)c1ccc(O)c(OC)c1 [TBJ1]
200 mg/kg, 5 minutes
  effect on performance in inverted screen test: 100%
200 mg/kg, 20 minutes
  effect on performance in inverted screen test: 75%
Doses lower than 200 mg/kg
  effect on performance in inverted screen test: did not produce significant effects

## COC(=O)Cc1ccc(O)c(OC)c1 [TBJ3]
10 min post-treatment, inactive at 200 (mg/kg)
  ED-50: activity in words: inactive
5 min, 5 min post-treatment
  ED50: 99.7 mg/kg
After injection
  time by which effect had essentially abated: ≤ 10 min
  potency relative to vanillin: approximately equipotent to vanillin

## O=Cc1ccc(OCc2ccc(C(=O)O)cc2)c(C(=O)O)c1 [TB34]
Not included in Table 4
  effect on performance in inverted screen test: mild or erratic effects

## COC(=O)c1ccc(OC)c(O)c1 [TBJ2]
2 min, 2 min post-treatment
  ED50: ~100 mg/kg
5 min, 5 min post-treatment
  ED50: > 100 mg/kg
10 min, 10 min post-treatment
  ED50: 132 mg/kg
20 min, at 20 min (printed in the 30 min line)
  ED50: ~140 mg/kg
  potency relative to vanillin: approximately equipotent to vanillin
Highest dose (200 mg/kg)
  persistence of effect on performance: 20 min
mouse, in vivo
  potency and duration relative to vanillin: approximately equipotent and as long or longer acting

## O=Cc1ccc(O)c(C(=O)O)c1 [FSA]
Not included in Table 4
  effect on performance in inverted screen test: failed to affect performance

## O=Cc1ccc(OCc2ccccc2)c(C(=O)O)c1 [TB17]
Not included in Table 4
  effect on performance in inverted screen test: failed to affect performance
